≈ marks a conversion by molar mass, not a printed value.
Assays:
[1] = tested on: murine lymphocytes (sheep red blood cells as antigen); test: Antigen-specific adjuvanticity: direct anti-SRBC plaque forming cells, murine system; assay type: cell-based, mouse
Source text: ^1 Adjuvanticities against sheep red blood cells [SRBC] measured in
direct plaqueforming cells per culture of lymphocytes from the mouse
strains shown. Details of the procedure are provided in the Materials and
Methods Section. Standard errors from the enumerated mean values are show
A large number of comparisons of adjuvanticity using human and murine lymphocytes as the source of leukocytes have been carried out using compounds of the present invention, as well as with new compounds excluded from the present invention. […] Interstudy comparisons are however useful for showing trends and large differences. Tables 5, 6 and 7, hereinafter, provide exemplary data from such studies in which only the activity at the peak concentration is shown for each compound and the results for the controls are omitted.
Lymphocyte cultures. The serum-containing culture medium water prepared to contain the following per 100 milliliters: 91.9 milliliters RPMI 1640 (Flow Laboratories, Inc., Rockville, Md.), 0.1 milliliters of 100×glutamine, 1.0 milliliter of 100×sodium pyruvate, 1 0 milliliter of 50×nonessential amino acids, 1.0 milliliter of water containing 10^4 units of penicillin G and 10^4 micrograms of streptomycin, and 5.0 milliliters of a supportive lot of fetal calf serum (FCS). These ingredients were admixed to apparent homogeneity. Spleen cell suspensions and populations enriched for splenic B cells were prepared as described in Goodman et al., J. Immunol., 121:1905 (1978).
For evaluation of the primary humoral immune response to sheep erythrocytes (SRBC), 5×10^6 to 10^7 murine spleen cells were cultured in 1.0 milliliter of 5% FCS-containing medium for 4 or 5 days in the presence and absence of immunogen. Cells were incubated in culture trays (Costar, Cambridge, Mass.) at 37° C. in a humidified atmosphere of 10% CO2 in air using tissue culture boxes (CBS Scientific, Del Mar, Calif.) that were rocked at a frequency of 7 cycles per minute. Pooled SRBC are available from the Colorado Serum Co., Denver Colo.
(§1) Assay of plaque forming cells (PFC). PFC secreting antibodies against SRBC were evaluated after 4 or 5 days of culture using a modification of the hemolytic plaque assay of Jerne and Nordin, Science, 140:405 (1963). The cells were brought up in complete medium before plaquing; they were plaqued in standard low Mr agarose (Bio-Rad Laboratories, Richmond Calif.), and were incubated in SRBC-absorbed guinea pig complement for one hour after a 1.5 hour incubation without complement.

[2] = tested on: murine spleen cells; test: Mitogenicity: [3H]TdR uptake, murine system; assay type: cell-based, mouse; conditions: Table 4
[3] = tested on: human peripheral blood lymphocytes (sheep red blood cells as antigen); test: Antigen-specific adjuvanticity: direct anti-SRBC plaque forming cells, human system; assay type: cell-based
Method: ^1 Studies were carried in a manner similar to those of Table 1,
except that a human lymphocyte preparation was used.
The results shown in Table 7, below, were obtained similarly to those discussed above, but using human lymphocytes. Some of those studies utilized lymphocytes from more than one individual, and are therefore reported with multiple entries.
Human peripheral blood lymphocytes (PBL) were prepared from normal heparinized venous blood by Ficoll-diatrizoate density gradient centrifugation. PBL were depleted of suppressor T cells bearing the histamine type 2 receptor by adhering them to the surfaces of histamine-rabbit serum albumin-coated plastic petri dishes (Cell-ect No. 2 kit; Seragen, Boston, Mass.) and by recovering the nonadherent cells by panning as described by Wysocki and Sato, Proc. Natl. Acad. Sci. USA, 75:2844 (1978) and modified by Cavagnaro and Osband, Biotechniques, January/February:30 (1983).
The tissue culture medium employed in these studies for human lymphocytes was prepared as follows: One hundred milliliters (ml) contained 87.9 ml RPMI 1640 (Flow Laboratories, Rockville, Md.), 0.1 ml 100×glutamine,1.0 ml of 1.0 M HEPES buffer (Microbilogical Associates, Betheseda, Md.), 1.0 ml of water containing 10^4 U of penicillin G and 10^4 micrograms of streptomycin, and 10 ml of fresh autologous heat-inactivatedplasma. For evaluation of the primary humoral immune response to SRBC, lymphoid cells prepared as above were cultured at a density of 2×10^6 /ml in a volume of 1.0 ml containing 5×10^6 SRBC as antigen (Colorado Serum Co., Denver, Colo.) together with IL-2 (a partially purified preparation of human IL-2 that was free of interferon-gamma activity was obtained from Electro-Nucleonics, Inc., Silver Spring, Md.) and the guanine nucleoside derivative.
as §1

[4] = tested on: CBA/N mouse spleen cells; test: In vitro reconstitution of primary humoral immune response to SRBC, immunodeficient CBA/N spleen cells (FIG. 2); assay type: cell-based
Source text: (§2) FIG. 2 is a graph that illustrates the in vitro reconstitution of the primary humoral immune response to a specific antigen, SRBC, in cultured immunodeficient CBA/N mouse spleen cells (dotted line) obtained by contacting those cells with an aqueous composition containing 7a8oGuo, in the further presence of SRBC. A similar study using spleen cells from immunocompetent CBA/CaJ mice (solid line) is also shown in the graph for comparison. The points on each line represent the PFC value obtained in the presence of the indicated amount of 7a8oGuo plus SRBC. The ordinate and abscissa are as in FIG. 1. Further details of this study are provided hereinafter.
(§3) Cultures of spleen cells from male and female homzygous CBA/N and male mice heterozygous for the CBA/N gene, called the xid gene, (male mice bear the X chromosome) was prepared as described in the Materials and Methods Section. 0.1 Milliters of a 0.1 percent (v/v) SRBC suspension alone or the SRBC suspension plus incremental amounts of 7a8oGuo were added to the cultures, using 5×10^6 cells/ml. Direct anti-SRBC […] per culture were assessed after 4 days of culture.

[5] = tested on: CBA/CaJ mouse spleen cells; test: Primary humoral response to SRBC, immunocompetent CBA/CaJ spleen cells (comparison in FIG. 2); assay type: cell-based
Source text: as §2, §3
The results of this study comparing cells from CBA/N mice with a preparation of spleen cells from CBA/CaJ mice, are shown in FIG. 2.

[6] = tested on: CBA/CaJ thymocytes (irradiated BDF1 splenocyte stimulators); test: T cell proliferation in mixed leukocyte cultures, CBA/CaJ thymocytes; assay type: cell-based, mouse; conditions: Study 4, responder +, stimulator +
Source text: A third and fourth study utilized thymocytes from CBA/CaJ mice as the stimulated (responder) cells, and irradiated BDFl mouse spleen cells as the stimulator cells. Two guanosine derivatives of the present invention, 7a8MGuo and 7a8oGuo, were used for these studies, with 8MGuo serving as positive control for one of the studies.
However, in the presence of interleukin-2 (IL-2), those cells develop responsiveness to allogeneic stimulation. The present studies utilizing thymocytes were therefore carried out in the presence of a co-stimulating amount of IL-2.
^1 Plus signs (+) are utilized to indicate the presence of the
^3 Allogeneic cells used to costimulate proliferation, after exposure
T Helper Cell Activation. 1.5×10^5 viable spleen cells from SJL mice or CBA/CaJ mouse thymocytes were cultured with or without an equal number of irradiated (2500 rads) spleen cells from CBA/CaJ or BDFl mice respectively, in 0.2 ml of culture medium in the presence of incremental concentrations of the exemplary 7,8-disubstituted guanine derivatives. The lymphocyte culture medium utilized was that described before, and was further supplemented with 2-mercaptoethanol to a final concentration of 50 uM. Thymocyte cultures also contained 10 percent (v/v) of a concanavalin A-conditioned rat spleen cell medium sold under the name Rat T Cell Monoclone by Collaborative Research. Following 90 hours of culture, one microCurie [^3 H]TdR per culture was admixed, and the resulting culture was maintained for a further six hour time period.
The cultures were harvested with a Brandel cell harvester (M24V, Biological Research and Development Laboratories, Rockville, Md.) onto glass fiber filter disks. Filter disks were transferred to plastic scintillation vials, covered with liquid scintillation cocktail, and counted in a Beckman LS5700 liquid scintillation counter.

[7] = physchem; assay type: physicochemical, human
Source text: Solubilities in urine could be expected to be lower than those for water due to the relatively higher salt content in urine than is found in water.
Each sample was filtered through a 5 micron pore-sized filter, diluted as necessary with the HPLC mobile phase, and then quantified by HPLC.

In the case of `C=CCn1c(=O)n([C@@H]2O[C@H](CO)[C@@H](O)[C@H]2O)c2nc(N)[nH]c(=O)c21` [7a8oGuo, 7-(2-Propenyl)-8-oxoguanosine], the “Peak Direct anti-SRBC PFC/Culture” value ([1]; Table 5, murine system, at peak concentration) is reported as 1827 PFC/Culture, the “Direct Anti-SRBC PFC/Culture” value ([1]; Table 8, 1 × 10^-5 M) is reported as 1387 PFC/Culture and the “Average 1 Log Plaque Values” ([1]; Table 9, murine, * = single study) is reported as 98,237 ± 42,041 per micromole. The “[3H] TdR Uptake” value ([2]; 3 × 10^-4 M) was 59,150 ± 420 cpm/culture, the “[3H] TdR Uptake” value ([2]; 10^-3 M) was 51,340 ± 1050 cpm/culture and the “[3H] TdR Uptake” value ([2]; 10^-4 M) was 39,830 ± 780 cpm/culture. The “Peak Direct anti-SRBC PFC/Culture” value ([3]; Table 7, first group, person a) was 3038 ± 288 PFC/Culture, the “Peak Direct anti-SRBC PFC/Culture” value ([3]; Table 7, first group, person b) was 9250 ± 1010 PFC/Culture and the “Peak Direct anti-SRBC PFC/Culture” value ([3]; Table 7, first group, person c) was 4831 ± 270 PFC/Culture. The “Peak Direct anti-SRBC PFC/Culture” value ([3]; Table 7, second group, person a) was 477 PFC/Culture, the “Peak Direct anti-SRBC PFC/Culture” value ([3]; Table 7, second group, person b) was 10,313 PFC/Culture and the “Peak Direct anti-SRBC PFC/Culture” value ([3]; Table 7, second group, person c) was 4413 PFC/Culture. For the same compound, the “Average 1 Log Plaque Values” ([3]; Table 9, human, * = single study) was 22,640 ± 4187 per micromole, the “peak adjuvanticity values greater as compared to 7m8oGuo” value ([3]; human system (Table 3)) was “about 100%” and the “concentration giving the similar PFC/culture values” [4] was 30 µM. For the same compound, the “concentration giving the similar PFC/culture values” [5] was 10^-5 M, the “[3H] TdR Uptake” value ([6]; 10^-4 M) was 10,000 ± 800 counts per minute and the “[3H] TdR Uptake” value ([6]; 10^-5 M) was 8000 ± 300 counts per minute. The “[3H] TdR Uptake” value ([6]; 10^-6 M) was 8300 ± 300 counts per minute, the “solubility in human urine, in words” value [7] was “about a three-fold greater solubility than did 7m8oGuo” and the solubility at 18 h ([7]; human, urine) was 16.3 mg/mL (≈ 48 mM).

Source: patent US5011828A, “Immunostimulating guanine derivatives, compositions and methods” (priority 1988, dated 1991)
